The source of these data is BindingDB's records for doi:10.1016/0960-894X(95)00370-9 (1995).

SMILES strings stand for the structures.

The assay addresses Type-1 angiotensin II receptor A (Rattus norvegicus) (UniProt P25095). Put plainly: Tested for binding affinity against angiotensin II receptor in rat adrenal cortex.

Sequence of Type-1 angiotensin II receptor A (Rattus norvegicus) (P25095 whole entry, looked up): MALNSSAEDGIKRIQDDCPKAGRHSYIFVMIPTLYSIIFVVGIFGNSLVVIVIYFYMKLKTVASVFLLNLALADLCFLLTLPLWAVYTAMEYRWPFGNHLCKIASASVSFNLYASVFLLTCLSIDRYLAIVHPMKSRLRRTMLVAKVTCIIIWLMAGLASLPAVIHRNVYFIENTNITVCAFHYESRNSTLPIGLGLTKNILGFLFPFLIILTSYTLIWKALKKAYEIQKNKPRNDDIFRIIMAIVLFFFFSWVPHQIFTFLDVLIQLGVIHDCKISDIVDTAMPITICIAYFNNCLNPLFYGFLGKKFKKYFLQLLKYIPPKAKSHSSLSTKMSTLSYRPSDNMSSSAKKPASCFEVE

One may read the IC50 as the point on the concentration scale where inhibition reaches its midpoint. `CCCc1cc(=O)n(CCNC(=O)C(c2ccccc2)c2ccccc2)c(=O)n1Cc1ccc(-c2ccccc2-c2nnn[nH]2)cc1` [N-(2-{2,6-Dioxo-4-propyl-3-[2'-(1H-tetrazol-5-yl)-biphenyl-4-ylmethyl]-3,6-dihydro-2H-pyrimidin-1-yl}-ethyl)-2,2-diphenyl-acetamide] registered an IC50 of 14 nM. This lies in the double-digit nanomolar range.

The compound `CCCc1cc(=O)n(CCN2C(=O)c3ccccc3C2=O)c(=O)n1Cc1ccc(-c2ccccc2-c2nnn[nH]2)cc1` [2-(2-{2,6-Dioxo-4-propyl-3-[2'-(1H-tetrazol-5-yl)-biphenyl-4-ylmethyl]-3,6-dihydro-2H-pyrimidin-1-yl}-ethyl)-isoindole-1,3-dione] had an IC50 of 4.4 nM.
